One assay deals with T1, human ADRA2B receptor (Homo sapiens, UniProt P18089).
T1 construct: expressed in transfected cells
T1 sequence (P18089 1-450): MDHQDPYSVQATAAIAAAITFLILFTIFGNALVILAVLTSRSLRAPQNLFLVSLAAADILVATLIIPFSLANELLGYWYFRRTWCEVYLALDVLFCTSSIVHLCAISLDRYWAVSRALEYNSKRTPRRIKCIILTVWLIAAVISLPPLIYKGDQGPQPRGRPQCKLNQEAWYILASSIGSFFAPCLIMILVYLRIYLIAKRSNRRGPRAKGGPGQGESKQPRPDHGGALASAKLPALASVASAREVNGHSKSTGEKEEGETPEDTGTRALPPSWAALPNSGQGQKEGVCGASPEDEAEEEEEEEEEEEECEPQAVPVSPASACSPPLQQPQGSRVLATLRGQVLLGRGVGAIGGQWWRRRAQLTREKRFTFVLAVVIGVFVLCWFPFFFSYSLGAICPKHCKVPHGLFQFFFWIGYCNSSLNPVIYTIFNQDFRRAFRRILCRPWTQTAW
Put plainly: ADRA2B arrestin agonist assay. Conditions: CHO-K1 cells stably expressing human ADRA2B; read-out: Beta-Arrestin - Human Alpha2B EC50. Type of assay: cell-based. In a few lines:
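CHO-K1 cells stably expressing human ADRA2B, thawed from frozen stock and plated overnight, were treated with agonist for 2 h at 37 °C. Arrestin recruitment detected by luminescence after 2 h with detection reagents at room temperature.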
For the compound `[2H]C([2H])([2H])Oc1c(C)cccc1C(Cc1ccnc(C)n1)c1c[nH]cn1` (stereo not drawn) [Compound 359, 4-{2-(4-imidazolyl)-2-[2-(^2H3)methoxy-3-tolyl]ethyl}-2-methylpyrimidine], the EC50 lay in the range of 10 to 50 nM.
For the compound `Cc1cc(CC(c2c[nH]cn2)c2cccc(C)c2C)nc(C(C)(C)F)n1` (stereo not drawn) [Compound 206, 2-(1-fluoro-1-methylethyl)-4-[2-(4 imidazolyl)-2-(2,3-xylyl)ethyl]-6-methylpyrimidine], the EC50 is under 10 nM.
For `Cc1cccc(C(Cc2cnc3[nH]ccc3c2)c2c[nH]cn2)c1C` (stereo not drawn) [Compound 283, 4-[2-(1H-1,7-diazainden-5-yl)-1-(2,3-xylyl)ethyl]imidazole], the EC50 is under 10 nM.
In the case of `Cc1nccc(CC(c2c[nH]cn2)c2cccc(C)c2Cl)n1` (stereo not drawn) [Compound 157, 4-[2-(2-chloro-3-tolyl)-2-(4-imidazolyl)ethyl]-2-methylpyrimidine], the EC50 was under 10 nM.
In the case of `Cc1cccc([C@H](Cc2ccnc(C(C)(C)O)n2)c2c[nH]cn2)c1C` [Compound 211, 2-{4-[(S)-2-(4-imidazolyl)-2-(2,3-xylyl)ethyl]-2-pyrimidinyl}-2-propanol], the EC50 was over 500 nM.
Same read-out and setting: with `Cc1cccc(C(Cc2cc[nH]n2)c2c[nH]cn2)c1F` (stereo not drawn) [Compound 236, 3-[2-(2-fluoro-3-tolyl)-2-(4-imidazolyl)ethyl]pyrazole] the figure was 50 to 500 nM.
On to `Cc1cccc([C@@H](Cc2ccnc(C3CC3)n2)c2c[nH]cn2)c1C` [Compound 169, 4-[(R)-2-(4-imidazolyl)-2-(2,3-xylyl)ethyl]-2-cyclopropylpyrimidine], for which the EC50 was under 10 nM.
For the compound `Cc1cccc(C(Cc2ccc(F)nc2)c2c[nH]cn2)c1F` (stereo not drawn) [Compound 323, 4-[2-(6-fluoro-3-pyridyl)-1-(2-fluoro-3-tolyl)ethyl]imidazole], the EC50 is 50 to 500 nM.
The same measure, in the same setting: for `COc1nccc(CC(c2c[nH]cn2)c2cccc(C)c2F)n1` (stereo not drawn) [Compound 155, 4-[2-(2-fluoro-3-tolyl)-2-(4-imidazolyl)ethyl]-2-methoxypyrimidine] the value was under 10 nM; for `COc1nccc(C[C@@H](c2c[nH]cn2)c2cccc(F)c2OC)n1` [Compound 182, 4-[(R)-2-(3-fluoro-2-methoxyphenyl)-2-(4-imidazolyl)ethyl]-2-methoxypyrimidine], 10 to 50 nM.
In the case of `Cc1cccc(C(Cc2ccn3ccnc3c2)c2c[nH]cn2)c1C` (stereo not drawn) [Compound 403, 4-[2-(1,3a-diaza-6-indenyl)-1-(2,3-xylyl)ethyl]imidazole], the EC50 was 10 to 50 nM.
Regarding `Cc1cccc([C@@H](Cc2ccnc(C(C)(C)F)n2)c2c[nH]cn2)c1C` [Compound 205, 4-[(R)-2-(4-imidazolyl)-2-(2,3-xylyl)ethyl]-2-(1-fluoro-1-methylethyl)pyrimidine], the EC50 was under 10 nM.
For `c1cc2c(c(C(Cc3cnco3)c3c[nH]cn3)c1)OCC2` (stereo not drawn) [Compound 390, 5-[2-(2,3-dihydro-1-benzofuran-7-yl)-2-(4-imidazolyl)ethyl] 1,3-oxazole], the EC50 fell in the range of 10 to 50 nM.
With `Cc1cccc([C@H](Cc2cnco2)c2c[nH]cn2)c1C` [Compound 364, 5-[(S)-2-(4-imidazolyl)-2-(2,3-xylyl)ethyl]-1,3-oxazole], the EC50 is under 10 nM.
In the case of `Cc1cccc(CC(c2c[nH]cn2)c2cccc3ccn(C)c23)n1` (stereo not drawn) [Compound 284, 4-[1-(1-methyl-7-indolyl)-2-(6-methyl-2-pyridyl)ethyl]imidazole], the EC50 is 10 to 50 nM.
On the same count and under the same terms, for `Cc1nccc(CC(c2ccc3cccnc3c2)c2c[nH]cn2)n1` (stereo not drawn) [Compound 161, 4-[2-(4-imidazolyl)-2-(7-quinolyl)ethyl]-2-methylpyrimidine] the value was over 500 nM; for `CNc1ccc(CC(c2c[nH]cn2)c2cccc(C)c2C)cn1` (stereo not drawn) [Compound 270, N-methyl{5-[2-(4-imidazolyl)-2-(2,3-xylyl)ethyl]-2-pyridyl}amine], under 10 nM.
As for `Cc1cccc(CC(c2c[nH]cn2)c2cccc(C)c2F)n1` (stereo not drawn) [Compound 259, 4-[1-(2-fluoro-3-tolyl)-2-(6-methyl-2-pyridyl)ethyl]imida-zole], the EC50 is 10 to 50 nM.
In the case of `Cn1ncc2c(C(Cc3cccc(CF)n3)c3c[nH]cn3)cccc21` (stereo not drawn) [Compound 303, 4-{2-[6-(fluoromethyl)-2-pyridyl]-1-(4-imidazolyl)ethyl}-1-methyl-1H-indazole], the EC50 was in the range of 10 to 50 nM.
`Cc1cccc([C@H](Cc2cocn2)c2c[nH]cn2)c1C` [Compound 366, 4-[(S)-2-(4-imidazolyl)-2-(2,3-xylyl)ethyl]-1,3-oxazole]: the EC50 is under 10 nM.
Turning to `Cc1cc(C[C@H](c2c[nH]cn2)c2cccc(C)c2F)ncn1` [Compound 144, 4-[(S)-2-(2-fluoro-3-tolyl)-2-(4-imidazolyl)ethyl]-6-methylpyrimidine], the EC50 was over 500 nM.
With `Cc1cccc(C(Cc2nc(CO)ccc2F)c2c[nH]cn2)c1C` (stereo not drawn) [Compound 317, {5-fluoro-6-[2-(4-imidazolyl)-2-(2,3-xylyl)ethyl]-2-pyridyl}methanol], the EC50 is under 10 nM.
With `c1cc2c(c(C(Cc3ccc4nccn4c3)c3c[nH]cn3)c1)OCC2` (stereo not drawn) [Compound 300], the EC50 is under 10 nM.
As for `COc1nc(CC(c2c[nH]cn2)c2cccc3c2OCC3)ccc1F` (stereo not drawn) [Compound 313, 4-[1-(2,3-dihydro-1-benzofuran-7-yl)-2-(5-fluoro-6-methoxy-2-pyridyl)ethyl]imidazole], the EC50 is under 10 nM.
With `Cc1cccc(C(Cc2ccnn2C)c2c[nH]cn2)c1Cl` (stereo not drawn) [Compound 399, 5-[2-(2-chloro-3-tolyl)-2-(4-imidazolyl)ethyl]-1-methylpyrazole], the EC50 is under 10 nM.
As to `COc1nccc(CC(c2cccc(Cl)c2)c2c[nH]cn2)n1` (stereo not drawn) [Compound 340, 4-[2-(m-chlorophenyl)-2-(4-imidazolyl)ethyl]-2-methoxypyrimidine], the EC50 was in the range of 50 to 500 nM.
On to `Cc1cccc([C@H](Cc2ccnc(C3CC3)n2)c2c[nH]cn2)c1C` [Compound 168, 4-[(S)-2-(4-imidazolyl)-2-(2,3-xylyl)ethyl]-2-cyclopropylpyrimidine], for which the EC50 is 10 to 50 nM.
For `Cc1cc(CC(c2c[nH]cn2)c2cccc(C)c2C)nc(C)n1` (stereo not drawn) [Compound 316, 4-[2-(4-imidazolyl)-2-(2,3-xylyl)ethyl]-2,6-dimethylpyrimidine], the EC50 was under 10 nM.
The same measure, in the same setting: for `COCc1nccc(C[C@@H](c2c[nH]cn2)c2cccc(C)c2C)n1` [Compound 345, 4-[(R)-2-(4-imidazolyl)-2-(2,3-xylyl)ethyl]-2-(methoxymethyl)pyrimidine] the value was under 10 nM.
The same measure, in the same setting: for `COc1nccc(CC(c2c[nH]cn2)c2ccccc2OC2CC2)n1` (stereo not drawn) [Compound 195, 4-[2-(o-cyclopropoxyphenyl)-2-(4-imidazolyl)ethyl]-2-methoxypyrimidine] the value was 10 to 50 nM; for `Cc1nccc(CC(c2c[nH]cn2)c2cccc(Cl)c2C)n1` (stereo not drawn) [Compound 158, 4-[2-(3-chloro-2-tolyl)-2-(4-imidazolyl)ethyl]-2-methylpyrimidine], under 10 nM; for `COc1nccc(C[C@H](c2c[nH]cn2)c2cccc(F)c2OC)n1` [Compound 183, 4-[(S)-2-(3-fluoro-2-methoxyphenyl)-2-(4-imidazolyl)ethyl]-2-methoxypyrimidine], over 500 nM.
Take `OCc1nccc(CC(c2c[nH]cn2)c2cccc(Cl)c2F)n1` (stereo not drawn) [Compound 191, {4-[2-(3-chloro-2-fluorophenyl)-2-(4-imidazolyl)ethyl]-2-pyrimidinyl}methanol]: the concentration giving a half-maximal response (EC50) was 10 to 50 nM.
Turning to `Cc1cccc([C@H](Cc2ccn(CF)n2)c2c[nH]cn2)c1C` [Compound 261, 3-[(S)-2-(4-imidazolyl)-2-(2,3-xylyl)ethyl]-1-(fluoromethyl)pyra-zole], the EC50 was under 10 nM.
In the case of `Clc1cccc(C(Cc2cccnn2)c2c[nH]cn2)c1` (stereo not drawn) [Compound 139, 3-[2-(m-chlorophenyl)-2-(4-imidazolyl)ethyl] pyridazine], the 50% effective concentration (EC50) was over 500 nM.
Regarding `Cc1cccc([C@@H](Cc2cccc(CF)n2)c2c[nH]cn2)c1C` [Compound 150, 4-{(R)-2-[6-(fluoromethyl)-2-pyridyl]-1-(2,3-xylyl)ethyl}imidazole], the EC50 was under 10 nM.
With `Cc1cccc(C(Cc2ccc(C#N)nc2)c2c[nH]cn2)c1C` (stereo not drawn) [Compound 145, 5-[2-(4-imidazolyl)-2 (2,3-xylyl)ethyl]-2-pyridinecarbonitrile], the EC50 lay within 10 to 50 nM.
Regarding `Cc1ncncc1CC(c1c[nH]cn1)c1cccc2c1OCC2` (stereo not drawn) [Compound 268, 5-[2-(2,3-dihydro-1-benzofuran-7-yl)-2-(4-imidazolyl)ethyl]-4-methylpyrimidine], the EC50 fell in the range of 50 to 500 nM.
On to `Cc1cccc(C[C@H](c2c[nH]cn2)c2cccc3c2OCC3)n1` [Compound 266, 4-[(S)-1-(2,3-dihydro-1-benzofuran-7-yl)-2-(6-methyl-2-pyridyl)ethyl]imida-], for which the EC50 is over 500 nM.
With `COc1ncncc1CC(c1c[nH]cn1)c1cccc(C)c1C` (stereo not drawn) [Compound 275, 5-[2-(4-imidazolyl)-2-(2,3-xylyl)ethyl]-4-methoxypyrimidine], the EC50 fell in the range of 10 to 50 nM.

Still in this assay, the particulars now being: read-out: Beta-Arrestin - Human Alpha2B EC50.
As to `Cc1cccc([C@H](Cc2ccncc2)c2c[nH]cn2)c1C` [Compound 319, 4-[(S)-2-(4-pyridyl)-1-(2,3-xylyl)ethyl]imidazole], the EC50 was under 10 nM.
For the compound `Cc1cccc([C@H](Cc2cn[nH]c2)c2c[nH]cn2)c1C` [Compound 233, 4-[(S)-2-(4-imidazolyl)-2-(2,3-xylyl)ethyl]pyrazole], the EC50 is under 10 nM.

The EC50 is the midpoint of the concentration-response curve.

The values above are taken from patent US20260042769A1, “TRIARYL AGONISTS OF ALPHA-2 ADRENERGIC RECEPTORS” (ALCEPTOR THERAPEUTICS, INC., priority 2023, published 2026).
